Measurements taken from PubChem BioAssay (NCI).
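The concentration for 50% growth inhibition is given as GI50. The concentration for full growth arrest is given as TGI.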

Tests used:
Experiment in all cases: NCI-60 cell line screen, 384-well format
[1] = system: A498 renal
[2] = system: BT-549 breast
[3] = system: SK-MEL-2 melanoma
[4] = system: IGROV1 ovarian
[5] = system: NCI/ADR-RES ovarian
[6] = system: TK-10 renal
[7] = system: HL-60(TB) leukemia
[8] = system: SK-MEL-5 melanoma
[9] = system: A549 NSCLC
[10] = system: SF-295 CNS
[11] = system: SR leukemia
[12] = system: MDA-MB-435 melanoma
[13] = system: HOP-92 NSCLC
[14] = system: T-47D breast
[15] = system: RXF 393 renal
[16] = system: HT29 colon
[17] = system: MALME-3M melanoma
[18] = system: NCI-H522 lung
[19] = system: HCT-116 colon
[20] = system: CCRF-CEM leukemia
[21] = system: MCF7 breast
[22] = system: UO-31 renal
[23] = system: SK-MEL-28 melanoma
[24] = system: CAKI-1 renal
[25] = system: MDA-MB-468 breast
[26] = system: OVCAR-5 ovarian
[27] = system: COLO 205 colon
[28] = system: OVCAR-8 ovarian
[29] = system: RPMI-8226 leukemia
[30] = system: NCI-H226 lung
[31] = system: OVCAR-4 ovarian
[32] = system: UACC-257 melanoma
[33] = system: NCI-H23 lung
[34] = system: SNB-75 CNS
[35] = system: NCI-H460 NSCLC
[36] = system: K-562 leukemia
[37] = system: HCC-2998 colon
[38] = system: M14 melanoma
[39] = system: HCT-15 colon
[40] = system: PC-3 prostate
[41] = system: SF-268 CNS
[42] = system: HS 578T breast
[43] = system: OVCAR-3 ovarian
[44] = system: LOX IMVI melanoma
[45] = system: SK-OV-3 ovarian
[46] = system: SN12C renal
[47] = system: EKVX NSCLC

## COc1ccc2c(Oc3ccc(NC(=O)c4c(C)n(CC(C)(C)O)n(-c5ccccc5)c4=O)nc3)ccnc2c1
[1]
  GI50: 4.43 µM
  TGI: > 100 µM
[2]
  GI50: 11.5 µM
  TGI: 25.7 µM
[3]
  GI50: 13 µM
  TGI: 33.4 µM
[4]
  GI50: 9.46 µM
  TGI: > 100 µM
[5]
  GI50: 25.7 µM
  TGI: > 100 µM
[6]
  GI50: 10.8 µM
  TGI: 100 µM
[7]
  GI50: 5.49 µM
  TGI: 14.9 µM
[8]
  GI50: 13.8 µM
  TGI: > 100 µM
[9]
  GI50: 16.8 µM
  TGI: > 100 µM
[10]
  GI50: 13.9 µM
  TGI: > 100 µM
[11]
  GI50: 6.58 µM
  TGI: 19 µM
[12]
  GI50: 12.3 µM
  TGI: 53.7 µM
[13]
  GI50: 10.4 µM
  TGI: 41.1 µM
[14]
  GI50: 33.7 µM
  TGI: > 100 µM
[15]
  GI50: 2.42 µM
  TGI: 9.27 µM
[16]
  GI50: 39.9 µM
  TGI: > 100 µM
[17]
  GI50: 5.26 µM
  TGI: 60 µM
[18]
  GI50: 14.4 µM
  TGI: 54.1 µM
[19]
  GI50: 10.5 µM
  TGI: 30.2 µM
[20]
  GI50: 10.3 µM
  TGI: 22 µM
[21]
  GI50: 46.4 µM
  TGI: > 100 µM
[22]
  GI50: 18.4 µM
  TGI: > 100 µM
[23]
  GI50: 25.2 µM
  TGI: 84.8 µM
[24]
  GI50: 3.45 µM
  TGI: > 100 µM
[25]
  GI50: 22.9 µM
  TGI: > 100 µM
[26]
  GI50: 37.8 µM
  TGI: > 100 µM
[27]
  GI50: 42.2 µM
  TGI: > 100 µM
[28]
  GI50: 13.8 µM
  TGI: > 100 µM
[29]
  GI50: 6.85 µM
  TGI: 19.4 µM
[30]
  GI50: 22.6 µM
  TGI: > 100 µM
[31]
  GI50: 15.2 µM
  TGI: > 100 µM
[32]
  GI50: 25.1 µM
  TGI: > 100 µM
[33]
  GI50: 10.8 µM
  TGI: > 100 µM
[34]
  GI50: 7.61 µM
  TGI: 53.1 µM
[35]
  GI50: 14.3 µM
  TGI: > 100 µM
[36]
  GI50: 1.16 µM
  TGI: 2.51 µM
[37]
  GI50: > 100 µM
  TGI: > 100 µM
[38]
  GI50: 6.34 µM
  TGI: 70.2 µM
[39]
  GI50: 6.05 µM
  TGI: > 100 µM
[40]
  GI50: 18.5 µM
  TGI: > 100 µM
[41]
  GI50: 19.9 µM
  TGI: > 100 µM
[42]
  GI50: 4.65 µM
  TGI: 34.6 µM
[43]
  GI50: 13 µM
  TGI: 31.6 µM
[44]
  GI50: 47.2 µM
  TGI: > 100 µM
[45]
  GI50: 4.04 µM
  TGI: > 100 µM
[46]
  GI50: 2.24 µM
  TGI: 86.8 µM
[47]
  GI50: 37.3 µM
  TGI: > 100 µM
